Source: US6403788B1, “Non-genotoxic metalloporphyrins as synthetic catalytic scavengers of reactive oxygen species” (Eukarion, Inc., priority 2000, dated 2002)

Legend:
[1] = tested on: ΦX 174 DNA Plasmid (Form I); assay: Cleavage of ΦX 174 DNA plasmid (form I), compound alone or activated with KHSO5; format: biochemical, phage ΦX 174; conditions: for S (single-strand breaks per DNA molecule) / form % I / form % II / form % III: DNA 3.5 nM, compound 10 nM
Text: The DNA cleavage activity was quantified in terms of number of single-strand breaks per DNA molecule according to the equation […], Io=% form I (supercoiled DNA) in the DNA control, and I=% form I in the experiment (see Bernadou et al, Biochemistry, 28: 7268-7275, (1989)). This assay is very sensitive and is able to detect very low levels of DNA activity. S values less than S=1.0 are indicative of very low DNA cleavage activity when the compounds are at a concentration of equal to or less than 1000 nM and KHSO5 is present at a concentration of equal to or less than 100 μM.
ΦX 174 DNA digestion conditions for standard experiments were as follows: commercially available DNA was diluted to 50 μg/mL in phosphate buffer (10 mM, pH 7.5). The reaction involved 5 μL of ΦX 174 DNA (50 μg/mL, 74.8 μM in base pairs), 5 μL of 40 mM phosphate buffer, pH 7.5 with 400 mM NaCl, 5 μL of metalloporphyrin in double-distilled water or 5 μL of iron-bleomycin complex in double-distilled water, and 5 μL of KHSO5 or 5 μL of H2O2 or 5 μL of ascorbate in double-distilled water. Preincubation of DNA and metalloporphyrins or iron-bleomycin complex was performed for about 15 min. The digestion time in the presence of KHSO5 was 10 min, of H2O2 was 30 min and of ascorbate was 30 min at 20° C. DNA cleavage was monitored by agarose gel electrophoresis. Reactions with KHSO5 were first quenched by 2 μL of 100 mM Hepes buffer, pH 8. In all cases, reactions were quenched by 5 μL of a stopping reagent. The stopping reagent consisted of 250 mM Hepes buffer, pH 7.4, containing 75% glycerol and 0.05% bromophenol blue. Reaction mixtures were then run in 0.8% agarose slab horizontal gel containing ethidium bromide […], at constant current (25 mA for 15h), in 89 mM Tris-borate buffer and 2.5 mM EDTA pH 8.3. Bands were located by WV light (254 nm), photographed, and quantitated by microdensitometry. The correction coefficient 1.47±0.30 was used for decreased stainability of form I DNA vs form II DNA and form III DNA.

[2] = Catalase activity, hydrogen peroxide consumed at 20 minutes; format: biochemical; conditions: over 20 minutes; 10 μM compound, 100 μM hydrogen peroxide, 40 mM sodium phosphate pH 7.4
Protocol: (§1) Catalase activity was measured by incubating the sample compound with hydrogen peroxide and determining the amount of hydrogen peroxide remaining after a period of time using a colorimetric peroxidase-coupled assay method. 10 μM sample compound and 100 μM hydrogen peroxide in 40 mM sodium phosphate pH 7.4 were incubated together at ambient temperature in a multi-well plate. After the desired reaction period had elapsed, 20 μl of peroxidase/ABTS reagent was added (peroxidase/ABTS reagent contained 100 μl of 50 mM Na phosphate, pH 7.4, 1 mg horseradish peroxidase (1310 U/mg) and […]). After five minutes, absorbance at 750 nm was determined. The amount of hydrogen peroxide remaining was calculated based on a standard curve. To compare rates of catalase reaction, the amount of hydrogen peroxide consumed at 20 minutes was determined (See table III). It was also of interest to determine the total number of turnovers completed by the compound before inactivation by hydrogen peroxide. This was assayed under similar conditions, except that 15.8 μM compound was combined with 1582 μM hydrogen peroxide in 5 mM Na phosphate, pH 7.4. Reactions were allowed to proceed to completion and then the amount of hydrogen peroxide remaining was determined as described above. Results showing […] in the turnover assay (nmoles hydrogen peroxide per nmole compound) are also shown in Table III.

[3] = Catalase turnover assay, total hydrogen peroxide consumed before inactivation; format: biochemical; conditions: to completion, 15.8 μM compound, 1582 μM hydrogen peroxide, 5 mM Na phosphate pH 7.4
Protocol: as §1

[4] = Peroxidase activity, ABTS oxidation; format: biochemical; conditions: 10 μM compound, 200 μM hydrogen peroxide, 500 μM ABTS, pH 8.1, 740 nm
Protocol: Peroxidase activity was measured by incubating 10 μM compound, 200 μM hydrogen peroxide and 500 μM ABTS in 50 mM sodium phosphate, pH 8.1. The rate of ABTS oxidation was monitored at 740 nm and initial rates (change in absorbance per min.) determined.

[5] = Superoxide dismutase activity, xanthine-xanthine oxidase / cytochrome C; format: biochemical; conditions: reciprocal of IC50; xanthine 60 μM, xanthine oxidase 0.009 units/ml, cytochrome C 27.8 μM
Protocol: Superoxide Dismutase Activity was measured by incubating the compound with a superoxide generating system (Xanthine, 60 μM-Xanthine Oxidase, 0.009 units/ml) and a detector molecule (Cytochrome C, 27.8 μM). Upon reacting with a molecule of superoxide, Cytochrome C undergoes a spectrum-shift which can be detected as an increase in absorbance at 550 nm. In this assay procedure, the reactant concentrations were adjusted to give a reaction rate close to 0.1 AU/min. at 2-3 min. after the reaction began. Addition of compounds with Superoxide Dismutase activity reduce the rate of absorbance change. Compounds were assayed at several concentrations (typically at 0, 2, 4, and 8 μM) and the resulting rates were graphed and fitted to a linear regression formula. The linear regression formula was then solved to determine the concentration of compound required to reduce the reaction rate to 50% of the rate without compound present (IC50).

[6] = tested on: ΦX 174 DNA Plasmid (Form I); conditions: literature (Bernadou 1989, Vialas 2000, Meunier 1992); cited from earlier work

In the case of `C[n+]1ccc(-c2c3nc(c(-c4cc[n+](C)cc4)c4ccc([n-]4)c(-c4cc[n+](C)cc4)c4nc(c(-c5cc[n+](C)cc5)c5ccc2[n-]5)C=C4)C=C3)cc1.[Mn+3]` [MnTMPyP, 5, 10, 15, 20 meso-tetrakis(4-methylpyridiniumyl)porphyrinato-manganese (III), reference compound], the “S (single-strand breaks per DNA molecule)” value ([1]; KHSO5 10 μM) is reported as 15.3 SSBs, the “form % I” value ([1]; KHSO5 10 μM) is reported as 1% and the “form % II” value ([1]; KHSO5 10 μM) is reported as 86%. For the same compound, the “form % III” value ([1]; KHSO5 10 μM) was 13%, the “S (single-strand breaks per DNA molecule)” value ([1]; without KHSO5) was 0.03 SSBs and the “form % I” value ([1]; without KHSO5) was 90%. For the same compound, the “form % II” value ([1]; without KHSO5) was 10%, the “form % III” value ([1]; without KHSO5) was 0% and the “times more active in DNA cleavage than Structural Formula V” value ([1]; same concentration (10 nM), with KHSO5, from experiments 6, 9 and 10) was 1527 times. The “CATALASE* Rate at 20 mins.” value [2] was 3.4 nmole H2O2/nmole Structural Formula compound, the “CATALASE** H2O2 Consumption” value [3] was 31.1 nmole H2O2/nmole Structural Formula compound and the “PEROXIDASE Initial Rate” value [4] was 0.0672 change in absorbance per min. The “Cyt C SOD 1/(IC50, μM)” value [5] was 0.143 µM⁻¹ and the “oxidative DNA cleavage (literature statement)” value [6] was “able to generate DNA damage at nanomolar concentrations”.
